From US20240218066A1, “USE OF ANTI-PD-1 ANTIBODY IN COMBINATION WITH FIRST-LINE CHEMOTHERAPY IN TREATMENT OF ADVANCED NON-SMALL CELL LUNG CANCER” (SHANGHAI JUNSHI BIOSCIENCES CO., LTD., priority 2021, published 2024)

Assays:
[1] = test system: patients with untreated advanced NSCLC; assay: Phase III clinical study, efficacy assessed by the investigator according to RECIST 1.1; assay type: in vivo, human; set-up: reduction of the risk of progression or death, compared to standard chemotherapy / increase of PFS rate at 6 months compared to control group / increase of PFS rate at 12 months compared to control group / increase in ORR compared to control group: concentration or dose not given beside the values
Description: About 450 patients with advanced NSCLC not accompanied by EGFR-sensitive mutations and ALK fusions were randomly divided into two groups according to a 2:1 ratio, with the test group receiving toripalimab in combination with first-line standard chemotherapy and the control group receiving placebo in combination with first-line standard chemotherapy. Stratification was performed according to PD-L1 expression (TC≥1% vs TC<1%), smoking status (frequent smoking vs no smoking or little smoking), and pathological type (squamous cell carcinoma vs non-squamous cell carcinoma).
After randomization, the patients were subjected to treatment in the induction stage for 4-6 cycles, during which the patients received toripalimab/placebo+first-line standard chemotherapy. After the induction stage was over, the patients were subjected to treatment in the maintenance stage, during which patients with squamous cell carcinoma continued to receive toripalimab/placebo treatment until progressive disease, and patients with non-squamous cell carcinoma continued to receive toripalimab/placebo+pemetrexed treatment until progressive disease.
Tumor assessments were performed once every 6 weeks for the first 12 months of the study stage according to RECIST 1.1 and iRECIST; after 12 months, tumor assessments were performed every 9 weeks until progressive disease, initiation of a new anti-tumor therapy, intolerable toxicity, withdrawal of informed consent or death, 2 years of treatment with toripalimab, or other reasons as specified in the protocol, whichever occurred first.
Eligible subjects must (1) be patients with histologically and/or cytologically confirmed locally advanced (stage IIIB or IIIC) and stage IV non-small cell lung cancer that is inoperable and cannot receive radical concurrent chemoradiotherapy; (2) have at least one measurable lesion (according to RECIST 1.1); (3) have not received any systemic treatment (patients with recurrence more than 6 months after completion of prior neoadjuvant/adjuvant therapy may also be enrolled); (4) be aged between 18 and 75 years; (5) have ECOG of 0-1; (6) have an expected survival of ≥3 months; and (7) be available to provide tissue specimens for PD-L1 testing.
Unless otherwise specified, the efficacy analysis was based on the ITT set, which was analyzed by groups according to the treatment regimen to which patients were assigned at randomization.
The progression-free survival rate and median progression-free survival of the JS001+first-line standard treatment group and the placebo+first-line standard treatment group at different time points after the start of treatment were estimated by the Kaplan-Meier method, and Kaplan-Meier curves were plotted. The 95% confidence interval for progression-free survival rate at different time points (6 months and 1 year) was estimated using the Greenwood formula. The 95% confidence interval for median progression-free survival was estimated using the Brookmeyer-Crowley method where the log-log function conversion was used to reach normal approximation. Statistical test was performed on the inter-group difference by a stratified log-rank method for the total population. Statistical test was performed on the inter-group difference by a non-stratified log-rank method for the subpopulations. A stratified COX proportional hazards model was used to estimate the inter-group hazard ratio (HR) and the corresponding 95% confidence interval, and the tied events were processed by an exact method. Stratification analysis was performed using 3 stratification factors in the randomization process, including: (1) PD-L1 expression (TC≥1% vs TC<1%); (2) smoking status (frequent smoking vs no smoking or little smoking); and (3) pathological type (squamous cell carcinoma vs non-squamous cell carcinoma).
For analysis of secondary efficacy endpoints OS, DOR, and TTR, the method described above as applied to the primary efficacy endpoint PFS was used. […]

[2] = test system: patients with untreated advanced NSCLC; assay: Phase III clinical study, biomarker analysis (WES, TMB, gene mutations); assay type: in vivo, human
Description: As of Oct. 31, 2021, whole exome sequencing (WES) was performed on tumor biopsies and matched peripheral blood from 394 patients.
Tumor mutation burden (TMB) was determined by analyzing somatic mutations within coding regions of the human genome. The median TMB in each group was 6.6 mutations per million base pairs (Mb). Tumor tissue from 122 (26.2%) patients had more than 10 mutations/Mb, 72.1% of which was also PD-L1 TC≥1% (see FIG. 6a). […] However, compared to TMB-L (i.e., low TMB) patients (TMB<10 mutations/Mb). TMB-H patients had better PFS in the toripalimab group than in the placebo group (interaction P=0.026) (see FIGS. 7a and 7b).
Gene set enrichment analysis was performed on the relevant genes to identify over-represented biological pathways. […] In addition, patients with alterations in the IL-7 signaling pathway (HGF, IRS1, IRS2, and SMARCA4) or chromatin remodeling SWI/SNF complex (SMARCA4, SMARCA2, and PBRM1) also had better PFS results from combination therapy with toripalimab (see FIGS. 12-13).

[3] = patients with BOR reaching CR or PR, overall population
[4] = patients with non-squamous cell carcinoma
[5] = patients with non-squamous cell carcinoma, listed as test group
[6] = patients with squamous cell carcinoma
[7] = patients with squamous cell carcinoma, listed as test group

With “JS001 + standard first-line chemotherapy: toripalimab 240 mg Q3W plus albumin-bound paclitaxel+carboplatin (squamous) or pemetrexed+cisplatin/carboplatin (non-squamous)” the “PFS rate at 6 months” value ([1]; ITT) was 62.3%, the “PFS rate at 12 months” value ([1]; ITT) was 32.6% and the “increase of PFS rate at 6 months compared to control group” value ([1]; ITT) was 20.8%. For the same substance, the “increase of PFS rate at 12 months compared to control group” value ([1]; ITT) was 19.5%, the “HR for PFS (test vs control)” value ([1]; ITT population, RECIST 1.1) was 0.58 and the “PFS prolonged by, compared to standard chemotherapy” value ([1]; ITT population, RECIST 1.1) was 2.7 months. For the same substance, the “reduction of the risk of progression or death, compared to standard chemotherapy” value ([1]; ITT population, RECIST 1.1) was 42%, the “median PFS” value ([1]; ITT population, RECIST 1.1, interim analysis as of Nov. 17, 2020) was 8.3 months and the “Best overall response: Complete response (CR)” value ([1]; non-squamous cell carcinoma) was 0 N (%). For the same substance, the “Best overall response: Deletion” value ([1]; non-squamous cell carcinoma) was 8 (4.9) N (%), the “Best overall response: Not evaluable (NE)” value ([1]; non-squamous cell carcinoma) was 0 N (%) and the “Best overall response: Partial response (PR)” value ([1]; non-squamous cell carcinoma) was 95 (58.6) N (%). For the same substance, the “Best overall response: Progressive disease (PD)” value ([1]; non-squamous cell carcinoma) was 5 (3.1) N (%), the “Objective response rate (ORR)” value ([1]; non-squamous cell carcinoma) was 95 (58.6) N (%) and the DCR ([1]; overall population) was 90.9%. The “DOR prolonged by, compared to control group” value ([1]; overall population) was 4.1 months, the “HR for DOR (test vs control)” value ([1]; overall population) was 0.56 and the “increase in ORR compared to control group” value (“increase in ORR” below) ([1]; overall population) was 21.7%. For the same substance, the ORR ([1]; overall population, RECIST v1.1) was 63.4%, the “median DOR” value [1, 3] was 8.3 months and the “median TTR” value [1, 3] was 1.5 months. For the same substance, the “HR for DOR (test vs control)” value [1, 4] was 0.63, the “HR for PFS (test vs control)” value [1, 4] was 0.59 and the ORR [1, 4] was 58.6%. For the same substance, the “increase in ORR” value [1, 4] was 32.1%, the “median DOR (95% confidence interval)” value [1, 4] was 8.6 (6.9, NE) months and the “median TTR (95% confidence interval)” value [1, 4] was 1.4 (1.4, 1.9) months. The “median PFS” value ([1]; patients with non-squamous cell carcinoma, RECIST 1.1) was 8.4 months, the “median DOR (95% confidence interval)” value [1, 5] was 8.6 months and the “median TTR (95% confidence interval)” value [1, 5] was 1.4 months. The “HR for DOR (test vs control)” value [1, 6] was 0.46, the “HR for PFS (test vs control)” value [1, 6] was 0.55 and the ORR [1, 6] was 68.7%. The “increase in ORR” value [1, 6] was 9.8%, the “median DOR (95% confidence interval)” value [1, 6] was 6.9 (4.5, NE) months and the “median TTR (95% confidence interval)” value [1, 6] was 1.5 (1.4, 1.6) months. For the same substance, the “median PFS” value ([1]; patients with squamous cell carcinoma, RECIST 1.1) was 7.1 months, the “median DOR (95% confidence interval)” value [1, 7] was 6.9 months and the “median TTR (95% confidence interval)” value [1, 7] was 1.5 months. For the same substance, the “Best overall response: Complete response (CR)” value ([1]; squamous cell carcinoma) was 0 N (%), the “Best overall response: Deletion” value ([1]; squamous cell carcinoma) was 8 (5.4) N (%) and the “Best overall response: Not evaluable (NE)” value ([1]; squamous cell carcinoma) was 1 (0.7) N (%). The “Best overall response: Partial response (PR)” value ([1]; squamous cell carcinoma) was 101 (68.7) N (%), the “Best overall response: Progressive disease (PD)” value ([1]; squamous cell carcinoma) was 6 (4.1) N (%) and the “Objective response rate (ORR)” value ([1]; squamous cell carcinoma) was 101 (68.7) N (%). For the same substance, the “response rate (ORR)” value ([2]; ITT population, as of Oct. 31, 2021) was 65.7%, the ORR ([2]; TMB-H patients (TMB≥10 mutations/Mb), as of Oct. 31, 2021) was 72.7% and the “median PFS” value ([2]; patients carrying FA/PI3K/Akt pathway mutations) was 8.9 months. The “median PFS” value ([2]; patients carrying the SMARCA4 mutation (n=48), especially non-squamous cell subgroup (n=33)) was 9.9 months.
